For 28 compounds, IC50 and inhibition results are on record in ChEMBL document CHEMBL3808374, “Discovery of 3-Substituted 1H-Indole-2-carboxylic Acid Derivatives as a Novel Class of CysLT1 Selective Antagonists” (ACS Med Chem Lett, 2016).

Structures are written as SMILES. Calls of active or inactive are those of the source. The rule behind the calls is not given here.

The first assay addresses T1, Cysteinyl leukotriene receptor 2 (Homo sapiens, UniProt Q9NS75).
T1 sequence (Q9NS75 whole entry): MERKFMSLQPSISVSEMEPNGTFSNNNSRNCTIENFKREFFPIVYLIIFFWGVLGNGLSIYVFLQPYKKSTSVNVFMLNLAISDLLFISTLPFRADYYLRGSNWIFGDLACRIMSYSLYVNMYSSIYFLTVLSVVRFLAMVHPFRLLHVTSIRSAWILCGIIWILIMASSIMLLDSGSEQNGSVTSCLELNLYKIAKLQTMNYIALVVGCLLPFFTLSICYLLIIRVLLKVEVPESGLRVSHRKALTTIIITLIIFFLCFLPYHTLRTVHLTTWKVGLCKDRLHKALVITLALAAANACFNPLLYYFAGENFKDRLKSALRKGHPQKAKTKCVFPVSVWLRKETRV
The assay is described as follows: Antagonist activity against CysLT2 receptor (unknown origin) expressed in HEK293 cells assessed as inhibition of LTD4-induced calcium mobilization pre-incubated for 10 mins before LTD4 addition by Fluo-4 AM dye based fluorimetric assay. Type of assay: functional, cell-based.
Details: not given
In general, IC50 refers to the concentration needed to halve the response being measured. `O=C(/C=C/c1c(C(=O)O)[nH]c2ccc(Cl)cc12)Nc1cccc(/C=C/c2ccc3ccc(Cl)cc3n2)c1`: the IC50 is more than 100 µM.
As for `O=C(/C=C/c1c(C(=O)O)[nH]c2ccccc12)OCc1cccc(/C=C/c2ccc3ccc(Cl)cc3n2)c1`, the IC50 was more than 100 µM.
`O=C(/C=C/c1c(C(=O)O)[nH]c2cc(Cl)cc(Cl)c12)OCCc1ccccc1`: the IC50 is more than 100 µM.
`CCCCCOC(=O)/C=C/c1c(C(=O)O)[nH]c2cc(Cl)cc(Cl)c12`: the IC50 was more than 100 µM.
For `O=C(/C=C/c1c(C(=O)O)[nH]c2cc(Cl)cc(Cl)c12)OC1CCCCC1`, the IC50 is more than 100 µM.
As to `O=C(/C=C/c1c(C(=O)O)[nH]c2cc(Cl)ccc12)Nc1cccc(/C=C/c2ccc3ccc(Cl)cc3n2)c1`, the IC50 came out at 87 µM.
Still for that read-out and setting: next, `O=C(/C=C/c1c(C(=O)O)[nH]c2ccc(F)cc12)Nc1cccc(/C=C/c2ccc3ccc(Cl)cc3n2)c1`: 46 µM; `N#CCCCCOC(=O)/C=C/c1c(C(=O)O)[nH]c2cc(Cl)cc(Cl)c12`: more than 100 µM; `O=C(/C=C/c1c(C(=O)O)[nH]c2cccc(Cl)c12)Nc1cccc(/C=C/c2ccc3ccc(Cl)cc3n2)c1`: 36 µM.
Still for that read-out and setting: the value for `COc1ccc2[nH]c(C(=O)O)c(/C=C/C(=O)Nc3cccc(/C=C/c4ccc5ccc(Cl)cc5n4)c3)c2c1` was 46 µM; that for `O=C(/C=C/c1c(C(=O)O)[nH]c2cc(Cl)cc(Cl)c12)OCc1cccc(/C=C/c2ccc3ccc(Cl)cc3n2)c1` was more than 100 µM; that for `COc1cccc2c(/C=C/C(=O)Nc3cccc(/C=C/c4ccc5ccc(Cl)cc5n4)c3)c(C(=O)O)[nH]c12` was 15 µM.
On the same count and under the same terms, the value for `O=C(/C=C/c1c(C(=O)O)[nH]c2cc(Cl)cc(Cl)c12)OCCCCc1ccccc1` was more than 100 µM.
For the compound `CC(C)CCCOC(=O)/C=C/c1c(C(=O)O)[nH]c2cc(Cl)cc(Cl)c12`, the IC50 was more than 100 µM.
`COc1ccc2c(/C=C/C(=O)Nc3cccc(/C=C/c4ccc5ccc(Cl)cc5n4)c3)c(C(=O)O)[nH]c2c1`: the IC50 is more than 100 µM.
`O=C(/C=C/c1c(C(=O)O)[nH]c2cc(Cl)cc(Cl)c12)OCC1CCCCC1`: the IC50 was more than 100 µM.
`O=C(/C=C/c1c(C(=O)O)[nH]c2ccccc12)Nc1cccc(/C=C/c2ccc3ccc(Cl)cc3n2)c1`: the IC50 was 58 µM.
As for `O=C(/C=C/c1c(C(=O)O)[nH]c2cc(Cl)cc(Cl)c12)Nc1cccc(/C=C/c2ccc3ccc(Cl)cc3n2)c1`, the IC50 was more than 100 µM.
In the case of `O=C(/C=C/c1c(C(=O)O)[nH]c2cc(Cl)cc(Cl)c12)Oc1ccccc1`, the IC50 is more than 100 µM.
With `O=C(O)c1[nH]c2ccccc2c1C(=O)Nc1cccc(/C=C/c2ccc3ccc(Cl)cc3n2)c1`, the IC50 is 23 µM.
For the compound `O=C(CCc1c(C(=O)O)[nH]c2ccccc12)Nc1cccc(/C=C/c2ccc3ccc(Cl)cc3n2)c1`, the concentration for half-maximal inhibition (IC50) was determined as 50 µM.
On the same count and under the same terms, next, `O=C(/C=C/c1c(C(=O)O)[nH]c2c(Cl)cccc12)Nc1cccc(/C=C/c2ccc3ccc(Cl)cc3n2)c1`: more than 100 µM; `O=C(/C=C/c1c(C(=O)O)[nH]c2cc(Cl)cc(Cl)c12)OCCCc1ccccc1`: more than 100 µM.
Consider `O=C(/C=C/c1c(C(=O)O)[nH]c2cc(F)cc(F)c12)Nc1cccc(/C=C/c2ccc3ccc(Cl)cc3n2)c1`, for which the IC50 worked out at 76 µM.
`O=C(/C=C/c1c(C(=O)O)[nH]c2cc(Cl)cc(Cl)c12)OCc1ccccc1`: the IC50 is more than 100 µM.
As for `O=C(/C=C/c1c[nH]c2cc(Cl)cc(Cl)c12)OCc1cccc(/C=C/c2ccc3ccc(Cl)cc3n2)c1`, the half-inhibitory concentration (IC50) was more than 100 µM.

The target in a further assay is T2, Cysteinyl leukotriene receptor 1 (Homo sapiens, UniProt Q9Y271).
T2 sequence (Q9Y271 whole entry): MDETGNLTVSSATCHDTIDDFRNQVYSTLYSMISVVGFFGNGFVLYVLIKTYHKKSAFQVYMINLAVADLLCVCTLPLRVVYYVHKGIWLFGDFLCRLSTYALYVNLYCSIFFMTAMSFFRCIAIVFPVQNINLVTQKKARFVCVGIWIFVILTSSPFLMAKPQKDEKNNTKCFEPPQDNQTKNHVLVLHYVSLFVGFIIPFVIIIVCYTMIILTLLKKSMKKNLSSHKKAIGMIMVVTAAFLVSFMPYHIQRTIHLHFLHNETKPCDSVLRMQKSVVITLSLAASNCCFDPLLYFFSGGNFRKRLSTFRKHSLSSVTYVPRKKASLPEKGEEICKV
The assay is described as follows: Antagonist activity against CysLT1 receptor (unknown origin) expressed in HEK293 cells assessed as inhibition of LTD4-induced calcium mobilization pre-incubated for 10 mins before LTD4 addition by Fluo-4 AM dye based fluorimetric assay.
Details: not given
Type of assay: functional, cell-based. A general note: Calcium flux is commonly read through the fluorescence of an indicator in the cells.
In the case of `O=C(/C=C/c1c(C(=O)O)[nH]c2ccc(Cl)cc12)Nc1cccc(/C=C/c2ccc3ccc(Cl)cc3n2)c1`, the IC50 is 0.017 µM.
Take `O=C(/C=C/c1c(C(=O)O)[nH]c2ccccc12)OCc1cccc(/C=C/c2ccc3ccc(Cl)cc3n2)c1`: the IC50 was determined as 0.12 µM.
For `O=C(/C=C/c1c(C(=O)O)[nH]c2cc(Cl)cc(Cl)c12)OCCc1ccccc1`, the IC50 is more than 100 µM.
Still for that read-out and setting: next, `CCCCCOC(=O)/C=C/c1c(C(=O)O)[nH]c2cc(Cl)cc(Cl)c12`: more than 100 µM.
The same measure, in the same setting: the value for `O=C(/C=C/c1c(C(=O)O)[nH]c2cc(Cl)cc(Cl)c12)OC1CCCCC1` was more than 100 µM; that for `O=C(/C=C/c1c(C(=O)O)[nH]c2cc(Cl)ccc12)Nc1cccc(/C=C/c2ccc3ccc(Cl)cc3n2)c1` was 0.022 µM; that for `O=C(/C=C/c1c(C(=O)O)[nH]c2ccc(F)cc12)Nc1cccc(/C=C/c2ccc3ccc(Cl)cc3n2)c1` was 0.0078 µM.
On to `N#CCCCCOC(=O)/C=C/c1c(C(=O)O)[nH]c2cc(Cl)cc(Cl)c12`, for which the IC50 was more than 100 µM.
On to `O=C(/C=C/c1c(C(=O)O)[nH]c2cccc(Cl)c12)Nc1cccc(/C=C/c2ccc3ccc(Cl)cc3n2)c1`, for which the IC50 turned out to be 0.067 µM.
As for `COc1ccc2[nH]c(C(=O)O)c(/C=C/C(=O)Nc3cccc(/C=C/c4ccc5ccc(Cl)cc5n4)c3)c2c1`, the IC50 was found to be 0.025 µM.
In the case of `O=C(/C=C/c1c(C(=O)O)[nH]c2cc(Cl)cc(Cl)c12)OCc1cccc(/C=C/c2ccc3ccc(Cl)cc3n2)c1`, the IC50 turned out to be 0.66 µM.
On to `COc1cccc2c(/C=C/C(=O)Nc3cccc(/C=C/c4ccc5ccc(Cl)cc5n4)c3)c(C(=O)O)[nH]c12`, for which the IC50 worked out at 0.0059 µM.
As to `O=C(/C=C/c1c(C(=O)O)[nH]c2cc(Cl)cc(Cl)c12)OCCCCc1ccccc1`, the IC50 is more than 100 µM.
Same read-out and setting: the value for `CC(C)CCCOC(=O)/C=C/c1c(C(=O)O)[nH]c2cc(Cl)cc(Cl)c12` was more than 100 µM; that for `COc1ccc2c(/C=C/C(=O)Nc3cccc(/C=C/c4ccc5ccc(Cl)cc5n4)c3)c(C(=O)O)[nH]c2c1` was 0.012 µM.
As for `O=C(/C=C/c1c(C(=O)O)[nH]c2cc(Cl)cc(Cl)c12)OCC1CCCCC1`, the IC50 is more than 100 µM.
On the same count and under the same terms, the value for `O=C(/C=C/c1c(C(=O)O)[nH]c2ccccc12)Nc1cccc(/C=C/c2ccc3ccc(Cl)cc3n2)c1` was 0.009 µM.
In the case of `O=C(/C=C/c1c(C(=O)O)[nH]c2cc(Cl)cc(Cl)c12)Nc1cccc(/C=C/c2ccc3ccc(Cl)cc3n2)c1`, the IC50 is 0.29 µM.
`O=C(O)c1ccc(OCCCc2ccc(OCCCCOc3ccccc3)cc2)c(C(=O)NC2CCCC(C(=O)O)C2)c1` (stereo unspecified): the IC50 was more than 2.5 µM.
Turning to `O=C(/C=C/c1c(C(=O)O)[nH]c2cc(Cl)cc(Cl)c12)Oc1ccccc1`, the IC50 was more than 100 µM.
Still for that read-out and setting: the value for `O=C(O)c1[nH]c2ccccc2c1C(=O)Nc1cccc(/C=C/c2ccc3ccc(Cl)cc3n2)c1` was 0.035 µM; that for `O=C(CCc1c(C(=O)O)[nH]c2ccccc12)Nc1cccc(/C=C/c2ccc3ccc(Cl)cc3n2)c1` was 0.058 µM; that for `O=C(/C=C/c1c(C(=O)O)[nH]c2c(Cl)cccc12)Nc1cccc(/C=C/c2ccc3ccc(Cl)cc3n2)c1` was 0.016 µM.
On the same count and under the same terms, next, `O=C(/C=C/c1c(C(=O)O)[nH]c2cc(Cl)cc(Cl)c12)OCCCc1ccccc1`: more than 100 µM; `O=C(/C=C/c1c(C(=O)O)[nH]c2cc(F)cc(F)c12)Nc1cccc(/C=C/c2ccc3ccc(Cl)cc3n2)c1`: 0.038 µM.
Turning to `O=C(/C=C/c1c(C(=O)O)[nH]c2cc(Cl)cc(Cl)c12)OCc1ccccc1`, the IC50 was more than 100 µM.
The same measure, in the same setting: next, `O=C(/C=C/c1c[nH]c2cc(Cl)cc(Cl)c12)OCc1cccc(/C=C/c2ccc3ccc(Cl)cc3n2)c1`: 31 µM.

The target of a further assay is T3, Cysteinyl leukotriene receptor 1 (Mus musculus) (UniProt Q99JA4).
T3 sequence (whole entry): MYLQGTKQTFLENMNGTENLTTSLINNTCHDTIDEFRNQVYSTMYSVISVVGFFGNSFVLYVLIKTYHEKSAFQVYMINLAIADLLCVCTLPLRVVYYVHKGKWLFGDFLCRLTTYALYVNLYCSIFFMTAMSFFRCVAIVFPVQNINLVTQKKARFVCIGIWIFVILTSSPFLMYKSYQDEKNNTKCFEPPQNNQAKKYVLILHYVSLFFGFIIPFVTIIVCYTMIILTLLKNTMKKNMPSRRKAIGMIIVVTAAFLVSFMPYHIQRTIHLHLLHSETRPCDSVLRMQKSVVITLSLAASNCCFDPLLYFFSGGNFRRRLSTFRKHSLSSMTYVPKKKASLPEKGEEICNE
As to the kind of experiment: Antagonist activity at LTD4 receptor in splenocytes isolated from MOG(35 to 55 residues) containing CFA immunized and pertussis toxin-induced C57BL/6 mouse experimental autoimmune encephalomyelitis model assessed as inhibition of LTD4-induced leukocyte chemotaxis at 100 nM after 1.5 hrs by flow cytometric analysis. It is filed as cell-based.
Details: not given
By inhibition is commonly meant the relative decrease from the control value, in per cent. Regarding `O=C(/C=C/c1c(C(=O)O)[nH]c2ccc(F)cc12)Nc1cccc(/C=C/c2ccc3ccc(Cl)cc3n2)c1`, the inhibition was more than 50%.
With `COc1cccc2c(/C=C/C(=O)Nc3cccc(/C=C/c4ccc5ccc(Cl)cc5n4)c3)c(C(=O)O)[nH]c12`, the inhibition is more than 50%.
On to `COc1ccc2c(/C=C/C(=O)Nc3cccc(/C=C/c4ccc5ccc(Cl)cc5n4)c3)c(C(=O)O)[nH]c2c1`, for which the inhibition is more than 50%.
`O=C(/C=C/c1c(C(=O)O)[nH]c2ccccc12)Nc1cccc(/C=C/c2ccc3ccc(Cl)cc3n2)c1`: the inhibition was more than 50%.

The target in the next assay is T3, Cysteinyl leukotriene receptor 1 (Mus musculus). The assay is described as follows: Antagonist activity at LTD4 receptor in splenocytes isolated from MOG(35 to 55 residues) containing CFA immunized and pertussis toxin-induced C57BL/6 mouse experimental autoimmune encephalomyelitis model assessed as inhibition of LTD4-induced leukocyte chemotaxis at 10 nM after 1.5 hrs by flow cytometric analysis. It is filed as cell-based.
Details: not given
(In general: In flow cytometry, cells or beads pass a laser one at a time.)
Take `O=C(/C=C/c1c(C(=O)O)[nH]c2ccc(F)cc12)Nc1cccc(/C=C/c2ccc3ccc(Cl)cc3n2)c1`: the inhibition result is “Active”.
As to `COc1cccc2c(/C=C/C(=O)Nc3cccc(/C=C/c4ccc5ccc(Cl)cc5n4)c3)c(C(=O)O)[nH]c12`, the inhibition entry is “Active”.

A further assay shares this target. The note with it: C57BL/6, at 1 µM.
In turn, `O=C(/C=C/c1c(C(=O)O)[nH]c2cc(Cl)cc(Cl)c12)OCc1cccc(/C=C/c2ccc3ccc(Cl)cc3n2)c1` gave an inhibition of 50%.
For `CC(C)(O)c1ccccc1CC[C@@H](SCC1(CC(=O)O)CC1)c1cccc(/C=C/c2ccc3ccc(Cl)cc3n2)c1`, the inhibition was determined as 50%.
